Source: article PMC3991330 (Structure(London, England:1993), 2014)

Tests used:
TIPΔD2 [1] = target: T1, TIPΔD2 (Methanopyrus kandleri, UniProt Q8TZC3, DEL143-290); test: native nanoelectrospray ionization mass spectrometry; type: binding; conditions: tightly bound; co-purified from E. coli host
TIPΔD2 [2] = target: T1, TIPΔD2; test: malachite green phosphate release ATPase assay; type: biochemical
mkTIP49 = mkTIP49 (Methanopyrus kandleri, UniProt Q8TZC3); test: malachite green phosphate release ATPase assay; type: biochemical; conditions: optimum 75-80 °C
native MS = target: the molecule itself; test: native MS

Nc1ncnc2c1ncn2[C@@H]1O[C@H](COP(=O)(O)OP(=O)(O)O)[C@@H](O)[C@H]1O [ADP]
native nanoelectrospray ionization mass spectrometry (TIPΔD2 [1]): Both full-length mkTIP49 and TIPΔD2 contain a tightly bound ADP cofactor

Nc1ncnc2c1ncn2[C@@H]1O[C@H](COP(=O)(O)OP(=O)(O)OP(=O)(O)O)[C@@H](O)[C@H]1O [ATP]
malachite green phosphate release ATPase assay (PiColorLock ALS) (TIPΔD2 [2]): deletion of D2 had a dramatic stimulating effect on the catalytic activity of mkTIP49 | malachite green phosphate release ATPase assay (PiColorLock ALS) (mkTIP49): we measured the intrinsic ATPase activity of mkTIP49 and mutants thereof

B1: Methanopyrus kandleri TIP49 protein (mkTIP49), wild type, full length (enzyme, UniProt Q8TZC3 1-455, looked up)
chain: MVEIKEIGEVSTEETSPGAHSHITGLGLDENLKAKPVGDGLVGQEEAREAAGIVVEMVKQGRRAGHGLLLVGPPGTGKTAIAYGIARELGEDVPFVSISGSEIYGTNLSKTEFLQQAIRRAIGVEFTETREVIEGKVESLEIERAKHPLSPYMEVPSGAIIELKTQDDHRRFKVPEEIAIQLVQAGVREGDVIQIDVESGHVTKLGRAKDALEEEEEELLGVHAVELPEGPVQKKKEIKRVVTLHDLDMANVRAGRLLGFREEEITDEIRQKVDERVQKMVDEGEASLVPGVLFIDEAHMLDIEAFAFLNRSLEEEIAPILVMATNRAMAKVRGTDEEAPHGIPGDLLDRMLIARTRPFERHEIHEIIGIRARVQDIQLTDEAHEYLTDLGEEKSIRYATRLLEPARIVAEKEGSEVVEKKHVERVEEVFTDVSDSVEYMERMRRELPVMKYLTG
stoichiometry N (native MS): 12

B2: isolated mkTIP49 D2 insertion domain (TIPins, residues 124–290) (domain or fragment, Methanopyrus kandleri, UniProt Q8TZC3 124-290, looked up)
chain: VEFTETREVIEGKVESLEIERAKHPLSPYMEVPSGAIIELKTQDDHRRFKVPEEIAIQLVQAGVREGDVIQIDVESGHVTKLGRAKDALEEEEEELLGVHAVELPEGPVQKKKEIKRVVTLHDLDMANVRAGRLLGFREEEITDEIRQKVDERVQKMVDEGEASLVP
stoichiometry N (native MS): 2
